Data on two molecules can be found in publication PMC4104029, “Mechanism of Action of Compound-13: An α1-Selective Small Molecule Activator of AMPK” (Chemistry & Biology, 2014).

One series concerns α1-KO hepatocytes. The series is described as follows: Lipid synthesis, [1-14C]acetate incorporation. The class given is cell-based, mouse. As to conditions: 1 μM. As for the experimental part: Figure 6 C13 Is Relatively Selective for α1 Complexes in Primary Hepatocytes (A) Hepatocytes from WT, AMPKα1^−/−, and AMPKα2^−/− mice were treated with the indicated concentrations of C13 and labeled with [1-^14C]acetate for 3 hr. Rates of fatty acid and sterol synthesis were estimated from incorporation into saponifiable (upper graphs) and nonsaponifiable (lower graphs) lipids. Results are expressed as percentage WT vehicle and represent the mean ± SD for three independent experiments. (B) Mouse hepatocytes were incubated with the indicated concentrations of C13 for 3 hr, and lysates were analyzed using western blotting with the indicated antibodies.
Lipid synthesis was determined by labeling adherent cultures of primary hepatocytes with [1-^14C]acetate. After overnight culture, hepatocytes (5 × 10^5) were washed with warm PBS and allowed to rest for 3 hr in fresh M199. Cells were treated with vehicle (0.1% DMSO) or the indicated compounds and labeled with 1 mCi⋅mmol^−1 [1-^14C]acetate for 3 hr. […] Lipogenesis in hepatocytes from AMPKβ1/β2-KO mice was determined in media containing [^3H]acetate (0.2 mCi⋅mmol^−1). After 4 hr labeling, total lipids were extracted using the method of [Bligh and Dyer (1959)], and incorporated [^3H] was determined by scintillation counting. The results are expressed as micromoles acetate incorporated per gram-hour.

Another series addresses T1, PP2Cα (Homo sapiens, UniProt P35813).
T1 construct: purchased Division of Signal Transduction Therapy (DSTT, Dundee); host or cells: E. coli
Nature of the series: PP2Cα activity on synthetic peptide substrate. Format: biochemical. As to conditions: synthetic peptide substrate EFLR(pT)SCGS. How it is done: AMPKα1β1γ1 or α2β1γ1 was dephosphorylated in vitro with PP2Cα in 50 mM HEPES pH 7.4, 10 mM MgCl2, 0.1 mM EGTA, 0.03% BRIJ-35, 1 mM DTT, and the indicated compounds for 15 min at 30°C. Mg^2+ was omitted from the negative control. Reactions were terminated by 20-fold dilution and storage on ice. AMPK activity was assayed under standard conditions in the presence of saturating AMP (200 μM). The results are expressed as percentage activity of the negative control. In control experiments, PP2Cα activity was determined in reactions containing 50 mM TES pH 7.4, 0.1 mM EGTA, 25 mM MgCl2, 0.01% BRIJ-35, 0.02% (v/v) 2-mercaptoethanol, and 100 μM EFLR(pT)SCGS (168–176 AMPKα2). Liberated phosphate was determined using malachite green ([Baykov et al., 1988]).
Supplemental Figure Legends:
Figure S1, related to Figures 1-3. […] (A) Heterotrimeric AMPK complexes (10 ng) produced in both Sf9 (Sigma and Signalchem) and E.coli (in our laboratory) were analysed by Western blotting using isoform specific antibodies. […]
Figure S3, related to Figure 2. […] Results are expressed as mean Pi incorporated in nmol.min-1.mg-1 ± SD. […] Results are expressed as fold increase in activity relative to controls in the absence of compound ± SD.
(E) C2 and AMP displace a GST-AMPKγ2 subunit fusion from ATP-γ-Sepharose. […] The presence of eluted AMPKγ2 was analysed by SDS-PAGE and staining with colloidal Coomassie. […]

Details of series [1]: method as in Gómez-Galeno et al., 2010. As to conditions: 100 μM for up to 6 hr; ref Gómez-Galeno et al., 2010; cited from earlier work.

T1 sequence (P35813 whole entry, species assumed): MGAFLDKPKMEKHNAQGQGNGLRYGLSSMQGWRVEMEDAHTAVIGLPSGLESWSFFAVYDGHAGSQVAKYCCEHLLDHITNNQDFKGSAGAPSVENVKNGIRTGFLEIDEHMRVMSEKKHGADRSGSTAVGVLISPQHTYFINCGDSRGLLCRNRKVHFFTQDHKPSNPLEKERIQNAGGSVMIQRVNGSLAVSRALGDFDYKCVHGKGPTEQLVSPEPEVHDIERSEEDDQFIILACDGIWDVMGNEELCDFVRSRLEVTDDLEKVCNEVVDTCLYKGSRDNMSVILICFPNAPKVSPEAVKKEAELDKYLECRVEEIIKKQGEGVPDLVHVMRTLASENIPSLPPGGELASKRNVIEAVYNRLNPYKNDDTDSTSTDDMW

As to `CC(C)C(=O)OCOP(=O)(OCOC(=O)C(C)C)c1ccc(C2=NOC(=O)C2)o1` [Compound C13], the “effect on synthesis of saponifiable and nonsaponifiable lipids” value in the series on α1-KO hepatocytes was “no effect”.
For the molecule `O=P(O)(O)c1ccc(-c2cc(O)on2)o1` [Compound C2, 5-(5-hydroxyl-isoxazol-3-yl)-furan-2-phosphonic acid], on PP2Cα, the “direct effect on PP2Cα activity” value was “no direct effect”. The cellular accumulation result in series [1] is “no significant cellular accumulation”.
